Measurements published in ChEMBL document CHEMBL1201862, “PubChem BioAssay data set” (2004).
Where “and” joins values, the source holds several entries; their conditions need not be identical. Equal entries are not always repeated. Calls of active or inactive are those of the source.

Legend:
cells = assay type: functional
[1] = Vero E6 cell cytotoxicity, dose response, cytotoxicity control for non-replicating M. tuberculosis project, secondary assay (AID 492998); assay type: functional, VeroE6; conditions: Vero C1008
[2] = THP-1 cell cytotoxicity, dose response, cytotoxicity control for non-replicating M. tuberculosis project (AID 489025); assay type: functional
Protein skinhead-1 = target: T1, Protein skinhead-1 (Caenorhabditis elegans, UniProt P34707); assay type: functional
T1 sequence (P34707 whole entry): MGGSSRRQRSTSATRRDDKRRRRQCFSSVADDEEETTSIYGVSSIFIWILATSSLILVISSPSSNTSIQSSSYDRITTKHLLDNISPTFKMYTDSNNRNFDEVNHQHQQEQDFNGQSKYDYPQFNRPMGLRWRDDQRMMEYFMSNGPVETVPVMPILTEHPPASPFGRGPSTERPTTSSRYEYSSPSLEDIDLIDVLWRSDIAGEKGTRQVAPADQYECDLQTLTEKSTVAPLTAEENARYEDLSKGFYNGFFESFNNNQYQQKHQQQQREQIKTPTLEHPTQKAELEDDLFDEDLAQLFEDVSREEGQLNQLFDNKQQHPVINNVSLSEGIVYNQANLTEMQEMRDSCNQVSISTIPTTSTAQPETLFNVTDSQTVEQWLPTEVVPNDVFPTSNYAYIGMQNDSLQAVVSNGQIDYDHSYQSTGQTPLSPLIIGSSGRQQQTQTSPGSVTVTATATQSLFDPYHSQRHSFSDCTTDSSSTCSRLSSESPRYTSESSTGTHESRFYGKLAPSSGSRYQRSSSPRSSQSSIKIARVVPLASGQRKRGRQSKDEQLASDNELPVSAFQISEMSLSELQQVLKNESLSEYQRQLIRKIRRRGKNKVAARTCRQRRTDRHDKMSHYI

[3] = target: Dual specificity tyrosine-phosphorylation-regulated kinase 1A (Rattus norvegicus, UniProt Q63470); assay type: biochemical, Homo sapiens
[4] = target: Alkaline phosphatase, placental type (Homo sapiens, UniProt P05187); assay: human placental alkaline phosphatase inhibition – biochemical, luminescence, confirmation (AID 1512); assay type: functional
[5] = target: T2, Alkaline phosphatase, tissue-nonspecific isozyme (Homo sapiens, UniProt P05186); assay: potency against alkaline phosphatase TNAP – biochemical, luminescent, dose response, SAR follow-up (AID 1056)
T2 sequence (P05186 whole entry): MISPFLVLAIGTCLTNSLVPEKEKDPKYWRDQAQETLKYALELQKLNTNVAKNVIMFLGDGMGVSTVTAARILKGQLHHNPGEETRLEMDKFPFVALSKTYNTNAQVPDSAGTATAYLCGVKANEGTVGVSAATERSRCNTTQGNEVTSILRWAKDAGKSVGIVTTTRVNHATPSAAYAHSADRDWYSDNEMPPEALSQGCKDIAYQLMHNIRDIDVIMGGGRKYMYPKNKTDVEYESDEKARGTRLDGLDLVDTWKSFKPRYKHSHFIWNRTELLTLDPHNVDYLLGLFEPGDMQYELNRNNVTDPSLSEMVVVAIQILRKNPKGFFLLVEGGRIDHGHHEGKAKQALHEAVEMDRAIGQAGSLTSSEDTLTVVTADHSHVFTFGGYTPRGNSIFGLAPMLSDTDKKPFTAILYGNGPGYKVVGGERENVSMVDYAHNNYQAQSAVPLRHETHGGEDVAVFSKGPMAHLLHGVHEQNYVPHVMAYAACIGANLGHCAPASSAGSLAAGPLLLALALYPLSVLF

Cytochrome P450 3A4 [6] = target: T3, Cytochrome P450 3A4 (Homo sapiens, UniProt P08684)
Caspase-6 = target: T4, Caspase-6 (Homo sapiens, UniProt P55212); assay: inhibition of CASP6 peptide cleavage – biochemical, VEID-R110 fluorescence, cherry-pick, dose response (AID 720632)
T4 sequence (P55212 whole entry): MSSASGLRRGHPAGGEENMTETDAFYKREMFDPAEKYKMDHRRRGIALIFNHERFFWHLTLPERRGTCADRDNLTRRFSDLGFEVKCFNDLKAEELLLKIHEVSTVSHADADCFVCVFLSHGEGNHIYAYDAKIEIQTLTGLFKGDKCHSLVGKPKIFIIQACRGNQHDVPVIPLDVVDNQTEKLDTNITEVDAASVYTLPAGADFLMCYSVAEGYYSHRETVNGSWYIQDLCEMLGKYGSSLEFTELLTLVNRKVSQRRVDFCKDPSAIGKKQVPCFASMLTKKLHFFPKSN

Cytochrome P450 2C19 = Cytochrome P450 2C19 (Homo sapiens, UniProt P33261); assay: Cytochrome panel assay with activity outcomes. Panel member name: p450-cyp2c19 Compounds with AC50 equal or less than 10 uM are considered active; assay type: functional; conditions: read-out: AC50
Cytochrome P450 3A4 [7] = target: T3, Cytochrome P450 3A4; conditions: Potency
[8] = target: T2, Alkaline phosphatase, tissue-nonspecific isozyme; assay: TNAP enzyme inhibition by screening hits, dose response, selectivity assay for mouse IAP inhibitor project, biochemical, human TNAP, uHTS hits (AID 488906); assay type: functional
[9] = target: DNA dC->dU-editing enzyme APOBEC-3G (Homo sapiens, UniProt Q9HC16); assay: Dose Response confirmation of small molecule APOBEC3G DNA Deaminase Inhibitors via a fluorescence-based single-stranded DNA deaminase assay. [Related pubchem assays (depositor defined):AID493012, AID493028]; assay type: functional
[10] = target: Intestinal-type alkaline phosphatase (Mus musculus, UniProt P24822); assay: PubChem AID 488785; assay type: functional
Chain of Intestinal-type alkaline phosphatase (P24822 whole entry): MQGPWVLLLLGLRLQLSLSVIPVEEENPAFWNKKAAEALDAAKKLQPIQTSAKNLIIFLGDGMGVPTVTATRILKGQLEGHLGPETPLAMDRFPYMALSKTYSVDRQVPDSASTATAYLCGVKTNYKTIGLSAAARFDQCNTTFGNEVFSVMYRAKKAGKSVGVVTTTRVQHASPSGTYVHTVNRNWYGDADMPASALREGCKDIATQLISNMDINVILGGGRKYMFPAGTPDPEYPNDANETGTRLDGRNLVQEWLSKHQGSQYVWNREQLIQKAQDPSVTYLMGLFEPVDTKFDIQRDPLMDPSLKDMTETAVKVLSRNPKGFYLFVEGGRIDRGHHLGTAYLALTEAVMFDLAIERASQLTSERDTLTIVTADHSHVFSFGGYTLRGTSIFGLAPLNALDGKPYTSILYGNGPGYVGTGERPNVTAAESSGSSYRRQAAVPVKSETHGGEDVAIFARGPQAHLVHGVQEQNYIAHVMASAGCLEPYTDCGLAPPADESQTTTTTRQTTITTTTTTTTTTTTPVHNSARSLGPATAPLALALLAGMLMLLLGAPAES

Chain of Cytochrome P450 2C19 (P33261 whole entry): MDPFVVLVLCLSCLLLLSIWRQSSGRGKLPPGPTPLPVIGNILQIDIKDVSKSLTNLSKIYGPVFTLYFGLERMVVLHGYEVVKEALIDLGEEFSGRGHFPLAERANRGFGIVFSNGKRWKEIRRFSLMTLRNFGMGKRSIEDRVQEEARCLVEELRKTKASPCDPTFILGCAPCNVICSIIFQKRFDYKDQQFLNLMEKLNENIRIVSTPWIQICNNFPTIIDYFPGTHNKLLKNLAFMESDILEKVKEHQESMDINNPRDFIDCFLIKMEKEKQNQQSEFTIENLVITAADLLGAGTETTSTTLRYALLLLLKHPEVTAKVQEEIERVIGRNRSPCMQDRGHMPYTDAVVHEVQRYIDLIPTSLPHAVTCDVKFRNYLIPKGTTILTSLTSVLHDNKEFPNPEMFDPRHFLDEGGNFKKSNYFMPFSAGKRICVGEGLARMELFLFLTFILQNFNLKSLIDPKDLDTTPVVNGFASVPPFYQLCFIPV
T3 sequence (P08684 whole entry): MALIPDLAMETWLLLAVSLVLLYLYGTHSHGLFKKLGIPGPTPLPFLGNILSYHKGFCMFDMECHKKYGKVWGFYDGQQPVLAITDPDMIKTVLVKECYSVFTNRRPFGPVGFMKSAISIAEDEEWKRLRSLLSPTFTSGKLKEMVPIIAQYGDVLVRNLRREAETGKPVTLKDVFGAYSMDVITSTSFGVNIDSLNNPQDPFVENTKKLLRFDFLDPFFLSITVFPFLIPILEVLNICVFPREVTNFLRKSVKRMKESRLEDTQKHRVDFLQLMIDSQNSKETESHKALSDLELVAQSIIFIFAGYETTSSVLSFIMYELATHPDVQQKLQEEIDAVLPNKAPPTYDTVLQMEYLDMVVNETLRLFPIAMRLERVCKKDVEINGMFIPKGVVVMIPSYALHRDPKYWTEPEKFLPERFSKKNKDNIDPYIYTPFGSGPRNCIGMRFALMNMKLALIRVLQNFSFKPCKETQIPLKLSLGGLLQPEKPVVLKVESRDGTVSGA
Chain of Alkaline phosphatase, placental type (P05187 whole entry): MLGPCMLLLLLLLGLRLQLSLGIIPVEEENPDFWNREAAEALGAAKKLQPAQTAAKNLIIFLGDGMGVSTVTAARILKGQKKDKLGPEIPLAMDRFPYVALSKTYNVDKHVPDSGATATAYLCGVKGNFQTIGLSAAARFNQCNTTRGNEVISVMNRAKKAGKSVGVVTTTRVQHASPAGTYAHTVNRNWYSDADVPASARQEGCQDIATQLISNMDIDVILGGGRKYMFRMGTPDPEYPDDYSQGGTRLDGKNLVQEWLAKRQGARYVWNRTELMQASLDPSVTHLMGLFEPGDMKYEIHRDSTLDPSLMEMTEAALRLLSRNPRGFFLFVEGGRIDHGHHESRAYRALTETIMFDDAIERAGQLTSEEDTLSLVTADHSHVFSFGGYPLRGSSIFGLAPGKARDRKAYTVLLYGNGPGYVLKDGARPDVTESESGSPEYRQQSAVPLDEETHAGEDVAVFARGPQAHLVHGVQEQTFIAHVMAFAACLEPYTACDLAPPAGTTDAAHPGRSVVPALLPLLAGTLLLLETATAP
Chain of DNA dC->dU-editing enzyme APOBEC-3G (Q9HC16 whole entry): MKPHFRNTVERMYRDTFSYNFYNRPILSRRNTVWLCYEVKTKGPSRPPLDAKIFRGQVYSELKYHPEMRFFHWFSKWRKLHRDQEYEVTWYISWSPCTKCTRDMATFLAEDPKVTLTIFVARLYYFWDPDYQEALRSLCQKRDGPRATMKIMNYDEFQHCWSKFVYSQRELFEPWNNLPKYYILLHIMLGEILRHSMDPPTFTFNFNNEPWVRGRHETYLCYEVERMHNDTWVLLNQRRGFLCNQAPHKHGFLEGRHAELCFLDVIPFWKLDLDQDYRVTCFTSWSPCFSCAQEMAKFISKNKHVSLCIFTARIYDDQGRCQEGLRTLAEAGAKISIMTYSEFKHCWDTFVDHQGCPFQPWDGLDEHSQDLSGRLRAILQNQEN

Compound: O=C(Nc1nc(-c2cc(F)ccc2F)cs1)c1ccccn1
- IC50 (cells): 0.83 µM (active)
- CC50 [1]: > 20 µM (active)
- CC50 [2]: 29.4 µM (active)
- IC50 (Protein skinhead-1): > 100 µM (inactive)

Compound: CC(=O)NC12CC3CC(C1)CC(C(=O)Nc1nc4ccc(F)cc4s1)(C3)C2
- AC50 [3]: 2.64 µM (active)

Compound: Cc1cc(C(=O)NCCc2ccc(O)c(O)c2)c(C)o1
- IC50 [4]: > 100 µM (inactive)
- IC50 [5]: > 100 µM (inactive)

Compound: O=c1c(O)c(-c2cc(O)c(O)c(O)c2)oc2cc(O)cc(O)c12 [MYRICETIN]
- AC50 (Cytochrome P450 3A4 [6]): 3.98 µM (inconclusive)
- AC50 (Caspase-6): 0.461 µM (active)
- AC50 (Cytochrome P450 2C19): 3.98 µM (inconclusive) and 20 µM (inconclusive)
- AC50 (Cytochrome P450 3A4 [7]): 25.1 µM (inconclusive)
- IC50 [8]: 33.2 µM (active)
- IC50 [9]: 2.39 µM (active)
- IC50 [10]: 12.5 µM (active)
